Measurements taken from patent US10966978B2, “Dose and regimen for HDM2-p53 interaction inhibitors” (Novartis AG, priority 2016, dated 2021).
Like-named read-outs stand apart in the source and are kept apart here.

System: patients with advanced TP53 wild-type (WT) leukemias

COc1ncc(-c2nc3c(n2C(C)C)[C@H](c2ccc(Cl)cc2)N(c2cc(Cl)cn(C)c2=O)C3=O)c(OC)n1 [HDM201, (S)-5-(5-Chloro-1-methyl-2-oxo-1,2-dihydro-pyridin-3-yl)-6-(4-chloro-phenyl)-2-(2,4-dimethoxy-pyrimidin-5-yl)-1-isopropyl-5,6-dihydro-1H-pyrrolo[3,4-d]imidazol-4-one]
AE: Stomatitis (Regimen 1B N = 6, All Grades): 0 n (%)
AE: Subarachnoid Haemorrhage (Regimen 1B N = 6, All Grades): 0 n (%)
AE: Thrombocytopenia/Platelet Count Decreased (Regimen 1B N = 6, All Grades): 3 (50.0) n (%)
AE: Total (Regimen 1B N = 6, All Grades): 5 (83.3) n (%)
AE: Tumour Lysis Syndrome (Regimen 1B N = 6, All Grades): 0 n (%)
AE: Vomiting (Regimen 1B N = 6, All Grades): 0 n (%)
AE: Weight Decreased (Regimen 1B N = 6, All Grades): 0 n (%)
AE: White Blood Cell Count Decreased (Regimen 1B N = 6, All Grades): 0 n (%)
AE: Abdominal Discomfort (Regimen 1B N = 6, Grade 3/4): 0 n (%)
AE: Abdominal Pain (Regimen 1B N = 6, Grade 3/4): 0 n (%)
AE: Abdominal Pain Upper (Regimen 1B N = 6, Grade 3/4): 0 n (%)
AE: Acute Kidney Injury (Regimen 1B N = 6, Grade 3/4): 1 (16.7) n (%)
AE: Amylase Increased (Regimen 1B N = 6, Grade 3/4): 0 n (%)
AE: Anaemia (Regimen 1B N = 6, Grade 3/4): 2 (33.3) n (%)
AE: Arthralgia (Regimen 1B N = 6, Grade 3/4): 0 n (%)
AE: Asthenia (Regimen 1B N = 6, Grade 3/4): 0 n (%)
AE: Atrial Fibrillation (Regimen 1B N = 6, Grade 3/4): 0 n (%)
AE: Atypical Pneumonia (Regimen 1B N = 6, Grade 3/4): 0 n (%)
AE: Balanitis Candida (Regimen 1B N = 6, Grade 3/4): 0 n (%)
AE: Blood Alkaline Phosphatase Increased (Regimen 1B N = 6, Grade 3/4): 0 n (%)
AE: Blood Bilirubin Increased (Regimen 1B N = 6, Grade 3/4): 0 n (%)
AE: Blood Creatinine Increased (Regimen 1B N = 6, Grade 3/4): 0 n (%)
AE: Blood Phosphorus Increased (Regimen 1B N = 6, Grade 3/4): 0 n (%)
AE: Blood Uric Acid Increased (Regimen 1B N = 6, Grade 3/4): 0 n (%)
AE: Bone Marrow Failure (Regimen 1B N = 6, Grade 3/4): 0 n (%)
AE: C-Reactive Protein Increased (Regimen 1B N = 6, Grade 3/4): 0 n (%)
AE: Cardiac Failure (Regimen 1B N = 6, Grade 3/4): 0 n (%)
AE: Cellulitis (Regimen 1B N = 6, Grade 3/4): 1 (16.7) n (%)
AE: Chronic Graft Versus Host Disease (Regimen 1B N = 6, Grade 3/4): 0 n (%)
AE: Conjunctival Haemorrhage (Regimen 1B N = 6, Grade 3/4): 0 n (%)
AE: Constipation (Regimen 1B N = 6, Grade 3/4): 0 n (%)
AE: Cough (Regimen 1B N = 6, Grade 3/4): 0 n (%)
AE: Cystitis Viral (Regimen 1B N = 6, Grade 3/4): 0 n (%)
AE: Cytomegalovirus Infection (Regimen 1B N = 6, Grade 3/4): 0 n (%)
AE: Decreased Appetite (Regimen 1B N = 6, Grade 3/4): 0 n (%)
AE: Diarrhoea (Regimen 1B N = 6, Grade 3/4): 0 n (%)
AE: Dyspepsia (Regimen 1B N = 6, Grade 3/4): 0 n (%)
AE: Dyspnoea (Regimen 1B N = 6, Grade 3/4): 0 n (%)
AE: Epistaxis (Regimen 1B N = 6, Grade 3/4): 0 n (%)
AE: Fatigue (Regimen 1B N = 6, Grade 3/4): 0 n (%)
AE: Febrile Neutropenia (Regimen 1B N = 6, Grade 3/4): 2 (33.3) n (%)
AE: Gamma-Glutamyltransferase Increased (Regimen 1B N = 6, Grade 3/4): 0 n (%)
AE: General Physical Health Deterioration (Regimen 1B N = 6, Grade 3/4): 0 n (%)
AE: Gingival Bleeding (Regimen 1B N = 6, Grade 3/4): 0 n (%)
AE: Graft Versus Host Disease (Regimen 1B N = 6, Grade 3/4): 0 n (%)
AE: Haemoglobin Decreased (Regimen 1B N = 6, Grade 3/4): 0 n (%)
AE: Headache (Regimen 1B N = 6, Grade 3/4): 0 n (%)
AE: Hyperbilirubinaemia (Regimen 1B N = 6, Grade 3/4): 0 n (%)
AE: Hyperglycaemia (Regimen 1B N = 6, Grade 3/4): 0 n (%)
AE: Hyperkalaemia (Regimen 1B N = 6, Grade 3/4): 1 (16.7) n (%)
AE: Hyperphosphataemia (Regimen 1B N = 6, Grade 3/4): 0 n (%)
AE: Hyperuricaemia (Regimen 1B N = 6, Grade 3/4): 0 n (%)
AE: Hypoalbuminaemia (Regimen 1B N = 6, Grade 3/4): 0 n (%)
AE: Hypocalcaemia (Regimen 1B N = 6, Grade 3/4): 0 n (%)
AE: Hypokalaemia (Regimen 1B N = 6, Grade 3/4): 0 n (%)
AE: Hypomagnesaemia (Regimen 1B N = 6, Grade 3/4): 0 n (%)
AE: Hyponatraemia (Regimen 1B N = 6, Grade 3/4): 0 n (%)
AE: Hypophosphataemia (Regimen 1B N = 6, Grade 3/4): 0 n (%)
AE: Hypotension (Regimen 1B N = 6, Grade 3/4): 0 n (%)
AE: Infection (Regimen 1B N = 6, Grade 3/4): 0 n (%)
AE: Infective Glossitis (Regimen 1B N = 6, Grade 3/4): 0 n (%)
AE: Iron Overload (Regimen 1B N = 6, Grade 3/4): 0 n (%)
AE: Leukopenia (Regimen 1B N = 6, Grade 3/4): 0 n (%)
AE: Lip Oedema (Regimen 1B N = 6, Grade 3/4): 0 n (%)
AE: Lipase Increased (Regimen 1B N = 6, Grade 3/4): 0 n (%)
AE: Macular Oedema (Regimen 1B N = 6, Grade 3/4): 1 (16.7) n (%)
AE: Malaise (Regimen 1B N = 6, Grade 3/4): 0 n (%)
AE: Mouth Haemorrhage (Regimen 1B N = 6, Grade 3/4): 0 n (%)
AE: Nausea (Regimen 1B N = 6, Grade 3/4): 0 n (%)
AE: Neutropenia/Neutrophil Count Decreased (Regimen 1B N = 6, Grade 3/4): 1 (16.7) n (%)
AE: Oedema (Regimen 1B N = 6, Grade 3/4): 0 n (%)
AE: Oedema Peripheral (Regimen 1B N = 6, Grade 3/4): 0 n (%)
AE: Oral Disorder (Regimen 1B N = 6, Grade 3/4): 0 n (%)
AE: Pain In Extremity (Regimen 1B N = 6, Grade 3/4): 0 n (%)
AE: Pancytopenia (Regimen 1B N = 6, Grade 3/4): 1 (16.7) n (%)
AE: Pneumonia (Regimen 1B N = 6, Grade 3/4): 0 n (%)
AE: Pollakiuria (Regimen 1B N = 6, Grade 3/4): 0 n (%)
AE: Pyrexia (Regimen 1B N = 6, Grade 3/4): 0 n (%)
AE: Rash (Regimen 1B N = 6, Grade 3/4): 0 n (%)
AE: Rash Erythematous (Regimen 1B N = 6, Grade 3/4): 0 n (%)
AE: Rash Papular (Regimen 1B N = 6, Grade 3/4): 0 n (%)
AE: Rectal Haemorrhage (Regimen 1B N = 6, Grade 3/4): 0 n (%)
AE: Renal Failure (Regimen 1B N = 6, Grade 3/4): 0 n (%)
AE: Skin Exfoliation (Regimen 1B N = 6, Grade 3/4): 0 n (%)
AE: Stomatitis (Regimen 1B N = 6, Grade 3/4): 0 n (%)
AE: Subarachnoid Haemorrhage (Regimen 1B N = 6, Grade 3/4): 0 n (%)
AE: Thrombocytopenia/Platelet Count Decreased (Regimen 1B N = 6, Grade 3/4): 3 (50.0) n (%)
AE: Total (Regimen 1B N = 6, Grade 3/4): 5 (83.3) n (%)
AE: Tumour Lysis Syndrome (Regimen 1B N = 6, Grade 3/4): 0 n (%)
AE: Vomiting (Regimen 1B N = 6, Grade 3/4): 0 n (%)
AE: Weight Decreased (Regimen 1B N = 6, Grade 3/4): 0 n (%)
AE: White Blood Cell Count Decreased (Regimen 1B N = 6, Grade 3/4): 0 n (%)
AE: Abdominal Discomfort (Regimen 2A N = 7, All Grades): 0 n (%)
AE: Abdominal Pain (Regimen 2A N = 7, All Grades): 0 n (%)
AE: Abdominal Pain Upper (Regimen 2A N = 7, All Grades): 0 n (%)
AE: Acute Kidney Injury (Regimen 2A N = 7, All Grades): 1 (14.3) n (%)
AE: Amylase Increased (Regimen 2A N = 7, All Grades): 0 n (%)
AE: Anaemia (Regimen 2A N = 7, All Grades): 3 (42.9) n (%)
AE: Arthralgia (Regimen 2A N = 7, All Grades): 0 n (%)
AE: Asthenia (Regimen 2A N = 7, All Grades): 0 n (%)
AE: Atrial Fibrillation (Regimen 2A N = 7, All Grades): 0 n (%)
AE: Atypical Pneumonia (Regimen 2A N = 7, All Grades): 0 n (%)
AE: Balanitis Candida (Regimen 2A N = 7, All Grades): 0 n (%)
AE: Blood Alkaline Phosphatase Increased (Regimen 2A N = 7, All Grades): 0 n (%)
AE: Blood Bilirubin Increased (Regimen 2A N = 7, All Grades): 0 n (%)
